{
  "source": "patent EP3277384B1",
  "about": "“SOLID ORAL CARE COMPOSITIONS” (Unilever IP Holdings B.V., priority 2015, dated 2016)",
  "experiment": "Approximate solubility of zinc salts",
  "conditions": "at 25C",
  "data": [
    {"substance": "Zinc oxide", "values": [
      {"measurement": "Approximate Solubility", "value": 5, "unit": "µg/mL"}
    ]}
  ]
}
